Laboratory results published in patent US20140024596A1, “DISEASE INHIBITING AGENT” (NITTA GELATIN INC., priority 2010, published 2014).
Non-standard residues stand in square brackets, D forms with d. Residues, ends and D or L forms follow the SMILES beside them. Hyp = O=C(O)[C@@H]1C[C@@H](O)CN1

Tests used:
in vivo = conditions: male, Wistar, rat, po, 215 nmol/10 mL
Description: Male Wistar rats (170 g) were fasted overnight before subjected to the experiment.
As a test method, heart and portal vein of each rat were attached with a cannula to make one-directional perfusion.
To a perfusion sample solution (5.0 mL) collected from the portal vein was added 0.5 mL of 30% sulfosalicylic acid and stirred vigorously, and left overnight in a refrigerator. This sample was centrifuged at 3000 rpm for 10 minutes, to remove protein. For the supernatant of centrifugation, an amount of hydroxyproline in 0.5 mL was colorimetrically quantified, and an amount of free-type Hyp was obtained.
Further, 3.0 mL of the supernatant of centrifugation was weighed into a screw-top test tube, and thereto an equivalent amount of concentrated hydrochloric acid was added, and hydrolyzed at 110° C. for 24 hours. After concentrating and drying the resultant in an evaporator, and removing the hydrochloric acid, the solid was dissolved in 5 mL of distilled water, and several drops of a saturated lithium hydroxide solution was added thereto to adjust pH at 5 to 7, and the volume was fixed at 10 mL. For 2 mL of this solution, an amount of hydroxyproline was colorimetrically quantified to obtain a total Hyp amount. The value obtained by subtracting the amount of free-type Hyp before hydrolysis from the total Hyp amount after hydrolysis is an amount of peptide-form Hyp. From this amount of peptide-form Hyp, a quantitative value of absorption of each peptide molecule into rat portal vein perfusate in the test sample was first determined.
In the above description, the colorimetric quantification of the amount of hydroxyproline was conducted by the Firschein and Shill method described concretely in Evaluation test 4.
Also, identification and quantification of OG, PO, Ala-Hyp, and Ser-Hyp were conducted by HPLC analysis and mass spectrometry (LC/MS/MS) as will be described later.
Analysis of the peptide molecules in the perfusate was conducted by reverse-phase HPLC analysis. As a HPLC device, an LCSS-905 system manufactured by JASCO Corporation, consisting of a liquid feeding pump, a degasser, an automatic sampler, a column open, a UV spectrophotometer, a printer, and a system controller was used. As a reverse-phase column, Nova Pak C18 (3.9×150 mm) was used.
A linear gradient mobile phase of a 0.1% TFA-containing acetonitrile-water system was used, and the injection amount of the sample was 70 μL and the flow rate was 1 mL/min.
As a HPLC device, U980HPLC (manufactured by JASCO Corporation) attached with an ODS(C18) column (Mightysil RP-18, 2×250 mm, manufactured by Kanto Chemical Co Ltd) was used. As a mobile phase solvent, a 0.2% formic acid-containing acetonitrile-water system was used, and the concentration of acetonitrile was increased from 0% to 40% over 40 minutes by a linear gradient, and washed with 100% acetonitrile for 10 minutes. The sample injection amount was 10 μL, and the column temperature was 40° C.
MS analysis was conducted by a MS/MS system using a Quattro LC mass spectrophotometer (Micromass, Manchester, UK) according to a four-channel Multiple Reaction Monitoring method. To be more specific, the elute from HPLC was monitored by m/z being [M+H]^+ and by m/s of its fragment ion species. The monitoring was conducted by using [M+H]^+ m/z: 229.1>132.1 for PO, [M+H]^+ m/z: 219.1>132.1 for Ser-Hyp, [M+H]^+ m/z: 203.1>132.1 for Ala-Hyp, and [M+H]^+ m/z: 189.1>86.1 for OG.
The perfusate was treated with sulfosalicylic acid in a final concentration of 3%, to remove protein. The supernatant liquid was lyophilized and 10 mg of a dry powder was dissolved in distilled water, and subjected to a positive ion exchange resin column to obtain an ammonia elution fraction. After removing the solvent, the fraction was dissolved in distilled water and subjected to LC/MS/MS analysis.

[1] = system: osteoclast (precursor cells of osteoclasts and bone marrow stromal cells on ivory piece); test: Evaluation Test 1: Pit assay, osteoclast cultured on ivory piece; format: cell-based, mouse; conditions: control (blank) = 100, n = 6; for Relative number of TRAP-positive multinucleated giant cells (osteoclasts) by cultivation on ivory piece (%): cultured about 1 week on ivory piece; for Relative number of Pit (%): resorption cavities on ivory piece, about 1 week
Description: Further, the inhibition degree of differentiation and activation of osteoclast by each of the peptide molecules, and amino acids was evaluated by the following Pit assay. In brief, the Pi assay in which osteoclast is cultured on an ivory piece was conducted in conformance with Kakudo S, et al J. Bone Miner. Metab. (1996) 14: 129-136. The concrete procedure is as follows. […] Then, after removing the cells from the ivory piece with a silicone rubber policeman, the ivory piece was stained with an acid hematoxylin solution for several minutes. At this time, the number of TRAP staining positive multinucleated giant cells (osteoclast) was counted by TRAP staining, and a relative number with respect to the number of cells in control (blank) was calculated. Then, the Pit number (number of resorption cavity) by osteoclast was counted under a microscope, and the degree of inhibiting osteoclast by each peptide to be tested was indicated by a relative ratio to blank (control).

[2] = system: osteoclast (mouse primary bone marrow cell culture); test: Evaluation Test 1: osteoclast differentiation culture on plastic dish (TRAP-positive multinucleated giant cells); format: cell-based; conditions: final concentration 625 μM, 6 days culture, control (blank) = 100, n = 6
Description: Evaluation was made in conformance with an osteoclast differentiation culture method by Kobayashi Y. et al. [J. Bone Miner. Metab. (2004) 22: p. 318-328]. […] As a control, TRAP inhibiting activity when no peptide was added (blank) was also examined.

| SMILES | level at time molar (in vivo) | further results |
| --- | --- | --- |
| O=C(O)CNC(=O)[C@@H]1C[C@@H](O)CN1C(=O)[C@@H]1CCCN1C(=O)CNC(=O)[C@@H]1C[C@@H](O)CN1C(=O)[C@@H]1CCCN1C(=O)CNC(=O)[C@@H]1C[C@@H](O)CN1C(=O)[C@@H]1CCCN1 [(POG)3, (Pro-Hyp-Gly)3] (H-P[Hyp]GP[Hyp]GP[Hyp]G-OH) | 900 nM |  |
| O=C(O)CNC(=O)[C@@H]1C[C@@H](O)CN1C(=O)[C@@H]1CCCN1C(=O)CNC(=O)[C@@H]1C[C@@H](O)CN1C(=O)[C@@H]1CCCN1C(=O)CNC(=O)[C@@H]1C[C@@H](O)CN1C(=O)[C@@H]1CCCN1C(=O)CNC(=O)[C@@H]1C[C@@H](O)CN1C(=O)[C@@H]1CCCN1 [(POG)4, (Pro-Hyp-Gly)4] (H-P[Hyp]GP[Hyp]GP[Hyp]GP[Hyp]G-OH) | 800 nM |  |
| CC(C)C[C@H](NC(=O)[C@H](Cc1c[nH]cn1)NC(=O)CNC(=O)[C@H](CC(=O)O)NC(=O)CNC(=O)[C@@H](N)CCC(=O)O)C(=O)NCC(=O)N[C@@H](CCCCN)C(=O)N1CCC[C@H]1C(=O)NCC(=O)N[C@@H](CCCNC(=N)N)C(=O)N1C[C@H](O)C[C@H]1C(=O)NCC(=O)N[C@@H](CCC(=O)O)C(=O)O [EGDGHLGKPGROGE] (H-EGDGHLGKPGR[Hyp]GE-OH) | 100 nM |  |
| N=C(N)NCCC[C@H](NC(=O)CNC(=O)[C@@H]1CCCN1C(=O)[C@H](CCCCN)NC(=O)CNC(=O)[C@@H]1CCCN1C(=O)[C@H](Cc1c[nH]cn1)NC(=O)CNC(=O)[C@H](CC(=O)O)NC(=O)[C@H](CCCCN)NC(=O)[C@@H](N)CCC(=O)O)C(=O)N1C[C@H](O)C[C@H]1C(=O)NCC(=O)N[C@@H](CCC(=O)O)C(=O)O [EKDGHPGKPGROGE] (H-EKDGHPGKPGR[Hyp]GE-OH) | 100 nM |  |
| NCC(=O)N1CCC[C@H]1C(=O)N1C[C@H](O)C[C@H]1C(=O)NCC(=O)N1CCC[C@H]1C(=O)N1C[C@H](O)C[C@H]1C(=O)NCC(=O)O [G(POG)2, Gly-(Pro-Hyp-Gly)2] (H-GP[Hyp]GP[Hyp]G-OH; N-terminus and C-terminus assumed) | 100 nM |  |
| NCC(=O)N1CCC[C@H]1C(=O)N1C[C@H](O)C[C@H]1C(=O)NCC(=O)N1CCC[C@H]1C(=O)N1C[C@H](O)C[C@H]1C(=O)NCC(=O)N1CCC[C@H]1C(=O)N1C[C@H](O)C[C@H]1C(=O)NCC(=O)O [G(POG)3, Gly-(Pro-Hyp-Gly)3] (H-GP[Hyp]GP[Hyp]GP[Hyp]G-OH) | 80 nM |  |
| O=C(O)[C@@H]1C[C@@H](O)CN1 [Hyp, hydroxyproline] |  | Relative number of TRAP-positive multinucleated giant cells (osteoclasts) by cultivation on ivory piece (%) [1]: 141 ± 9 %; Relative number of Pit (%) [1]: 131 ± 11 %; Relative area of TRAP-positive multinucleated giant cells (osteoclasts) by cultivation on plastic dish (%) [2]: 117 ± 13 %; Relative number of TRAP-positive multinucleated giant cells (osteoclasts) by cultivation on plastic dish (%) [2]: 126 ± 4 % |
| O=C(O)CNC(=O)[C@@H]1C[C@@H](O)CN1 [OG, Hyp-Gly] (H-[Hyp]-Gly-OH) | 9800 nM |  |
| O=C(O)[C@@H]1CCCN1 [Pro, proline] |  | Relative number of TRAP-positive multinucleated giant cells (osteoclasts) by cultivation on ivory piece (%) [1]: 119 ± 20%; Relative number of Pit (%) [1]: 121 ± 23%; Relative area of TRAP-positive multinucleated giant cells (osteoclasts) by cultivation on plastic dish (%) [2]: 125 ± 69%; Relative number of TRAP-positive multinucleated giant cells (osteoclasts) by cultivation on plastic dish (%) [2]: 119 ± 44% |

The next lines start with results.

| level at time molar (in vivo) | SMILES | further results |
| --- | --- | --- |
| 1100 nM | O=C(O)CNC(=O)[C@@H]1C[C@@H](O)CN1C(=O)[C@@H]1CCCN1C(=O)CNC(=O)[C@@H]1C[C@@H](O)CN1C(=O)[C@@H]1CCCN1 [(POG)2, (Pro-Hyp-Gly)2] (H-P[Hyp]GP[Hyp]G-OH; N-terminus and C-terminus assumed) |  |
| 1200 nM | C[C@H](N)C(=O)N1C[C@H](O)C[C@H]1C(=O)O [Ala-Hyp] (H-Ala-[Hyp]-OH) |  |
| 21300 nM | O=C(O)[C@@H]1C[C@@H](O)CN1C(=O)[C@@H]1CCCN1 [PO, Pro-Hyp] (H-Pro-[Hyp]-OH) |  |
| 700 nM | N[C@@H](CO)C(=O)N1C[C@H](O)C[C@H]1C(=O)O [Ser-Hyp] (H-Ser-[Hyp]-OH) |  |
